# Reference: US20110312961A1, “2,5-Disubstituted Morpholine Orexin REceptor Antagonists” (priority 2008, published 2011)
# Tests used:
# [1] = biological target: T1, human recombinant α4β4 nicotinic receptors (Homo sapiens, UniProt P30926+P43681); test: [3H]epibatidine binding, SH-EP1 membranes
# T1 construct: expressed in transfected cells; host or cells: SH-EP1
# normal rats = test: Novel object recognition (NOR) task; format: in vivo, rat; settings: for Minimum Effective Dose (MED): oral, rats (FIG. 2)
# Experimental: Memory was assessed by using the three-trial novel object recognition test. On the first day (exploratory trial), rats were allowed to explore an open arena (44.5×44.5×30.5 cm) for 6 min. On the second day (acquisition trial), rats were allowed to explore the same arena in the presence of two identical objects (both object A) for 3 minutes. On the third day (retention or recall trial), performance was evaluated by allowing the same animal to re-explore the arena for 3 minutes in the presence of two different objects: the familiar object A and a novel object B. An inter-trial interval of 24 hours was imposed between the three NOR trials. Recognition memory was assessed by comparing the time spent exploring a novel (object B) versus a familiar (object A) object during the recall trial. Recognition index was assessed for each animal and expressed as a ratio ((time B/time A+time B)×100).
# [2] = test system: ovalbumin-sensitized mice; test: Airway hyperresponsiveness (Penh) and BALF cell counts; format: in vivo, mouse; settings: for methacholine-induced increase in Penh values: FIG. 21
# Experimental: Using the method of Hamelmann et al, (2S,3R)—N-2-((3-pyridinyl)methyl)-1-azabicyclo[2.2.2]oct-3-yl)-3,5-difluorobenzamide was evaluated for possible inhibition of airway hyper-responsiveness in mice. Briefly, ovalbumin (OVA)-sensitized animals, 12 animals per group, were challenged by nasal inhalation with aerosolized 5% OVA for 25 min on days 21, 23, and 25. The mice were treated with vehicle or (2S,3R)—N-2-((3-pyridinyl)methyl)-1-azabicyclo[2.2.2]oct-3-yl)-3,5-difluorobenzamide subcutaneously (s.c.) twice daily from day 21 to day 26 or once daily intratracheally (i.t.), preceding ovalbumin aerosol challenge by 30 min on days 21, 23 and 25 as well as methacholine challenge or bronchoalveolar lavage fluids (BALF) harvest on day 26. Dexamethasone, the reference standard, was administered at 3 mg/kg orally (p.o.) once daily 60 min before OVA challenge on day 21, 23 and 25 and 60 min before methacholine provocation or BALF harvest on day 26. Noninvasive measurements of airway responsiveness were performed by using whole body plethysmography, in which increases in enhanced pause (Penh) serve as an index of airway obstruction. Responses to inhaled methacholine were measured and calculated as percentage of respective baseline values. Unpaired Students t-test was used for comparison between the vehicle control and the sham group; one-way ANOVA and Dunnett's post-hoc analyses were applied for comparison between the vehicle control and treated groups. Statistical significance is considered at P<0.05.
# [3] = biological target: T2, rat native α4β2 receptors (Rattus norvegicus, UniProt P09483+P12390); test: Radioligand binding, rat cortex membranes (α4β2); settings: read-out: Ki, inhibition of [3H]epibatidine binding to rat native α4β2 receptors
# T2 construct: rat native α4β2 receptors; from tissue; host or cells: rat (female Sprague-Dawley) cerebral cortex membranes
# Experimental: Preparation of Membranes from Rat Cortex: Rats (Female, Sprague-Dawley), weighing 150-250 g, were maintained on a 12 h light/dark cycle and were allowed free access to water and food supplied by PMI Nutrition International, Inc. Animals were anesthetized with 70% CO2, and then decapitated. Brains were removed and placed on an ice-cold platform. The cerebral cortex was removed and placed in 20 volumes (weight:volume) of ice-cold preparative buffer (137 mM NaCl, 10.7 mM KCl, 5.8 mM KH2PO4, 8 mM Na2HPO4, 20 mM HEPES (free acid), 5 mM iodoacetamide, 1.6 mM EDTA, pH 7.4); PMSF, dissolved in methanol to a final concentration of 100 μM, was added and the suspension was homogenized by Polytron. […]
# On the day of the assay, the frozen membranes were thawed and spun at 48,000×g for 20 min. […] Protein concentrations were determined using a Pierce BCA Protein Assay Kit, with bovine serum albumin as the standard (Pierce Chemical Company, Rockford, Ill.).
# […] Filters were then counted to determine radioactivity bound to the membranes by liquid scintillation counting (2200CA Tri-Carb LSC, Packard Instruments, 50% efficiency or Wallac Trilux 1450 MicroBeta, 40% efficiency, Perkin Elmer).
# Data were expressed as disintegrations per minute (DPMs). […] Ki values were calculated using the Cheng-Prussof equation (1973): […]
# [4] = biological target: T3, human recombinant α4β2 nicotinic receptors (Homo sapiens, UniProt P17787+P43681); test: [3H]-nicotine radioligand binding, SH-EP1/human α4β2 membranes; settings: read-out: inhibition of [3H]-nicotine binding to human recombinant α4β2 nicotinic receptors
# T3 construct: expressed in transfected cells; host or cells: SH-EP1 clonal cells
# Experimental: Preparation of membranes from SH-EP1/human α4β2 clonal cells: Cell pellets from 40 150 mm culture dishes were pooled, and homogenized by Polytron (Kinematica GmbH, Switzerland) in 20 milliliters of ice-cold preparative buffer. The homogenate was centrifuged at 48,000 g for 20 minutes at 4° C. The resulting pellet was re-suspended in 20 mL of ice-cold preparative buffer and stored at −20° C.
# On the day of the assay, the frozen membranes were thawed and spun at 48,000×g for 20 min. The supernatant was decanted and discarded. The pellet was resuspended in Dulbecco's phosphate buffered saline (PBS, Life Technologies) pH 7.4 and homogenized with the Polytron for 6 seconds. Protein concentrations were determined using a Pierce BCA Protein Assay Kit, with bovine serum albumin as the standard (Pierce Chemical Company, Rockford, Ill.).
# Membrane preparations (approximately 50 μg for human and 200-300 μg protein for rat α4β2) were incubated in PBS (50 μL and 100 μL respectively) in the presence of competitor compound (0.01 nM to 100 μM) and 5 nM [^3H]nicotine for 2-3 hours on ice. […] Filters were then counted to determine radioactivity bound to the membranes by liquid scintillation counting (2200CA Tri-Carb LSC, Packard Instruments, 50% efficiency or Wallac Trilux 1450 MicroBeta, 40% efficiency, Perkin Elmer).
# Data were expressed as disintegrations per minute (DPMs). […]
# T3 sequence (P43681 29-627 limits assumed): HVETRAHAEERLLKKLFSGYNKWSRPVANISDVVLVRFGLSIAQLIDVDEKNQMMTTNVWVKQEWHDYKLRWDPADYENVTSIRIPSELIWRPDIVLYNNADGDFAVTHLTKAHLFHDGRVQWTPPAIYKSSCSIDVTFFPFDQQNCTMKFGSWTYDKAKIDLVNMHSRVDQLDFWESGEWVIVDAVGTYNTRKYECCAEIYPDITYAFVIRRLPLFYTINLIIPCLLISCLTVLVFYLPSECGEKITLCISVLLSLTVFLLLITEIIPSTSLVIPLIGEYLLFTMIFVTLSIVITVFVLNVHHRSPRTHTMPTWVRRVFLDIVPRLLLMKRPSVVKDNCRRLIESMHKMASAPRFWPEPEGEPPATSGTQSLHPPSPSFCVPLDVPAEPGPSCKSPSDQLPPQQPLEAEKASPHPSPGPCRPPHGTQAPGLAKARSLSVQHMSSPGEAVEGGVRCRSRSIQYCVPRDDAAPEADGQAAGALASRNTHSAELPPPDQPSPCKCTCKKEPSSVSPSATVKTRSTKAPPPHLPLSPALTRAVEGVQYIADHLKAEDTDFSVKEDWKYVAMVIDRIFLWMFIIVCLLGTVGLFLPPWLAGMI
# T3 sequence (P17787 26-502): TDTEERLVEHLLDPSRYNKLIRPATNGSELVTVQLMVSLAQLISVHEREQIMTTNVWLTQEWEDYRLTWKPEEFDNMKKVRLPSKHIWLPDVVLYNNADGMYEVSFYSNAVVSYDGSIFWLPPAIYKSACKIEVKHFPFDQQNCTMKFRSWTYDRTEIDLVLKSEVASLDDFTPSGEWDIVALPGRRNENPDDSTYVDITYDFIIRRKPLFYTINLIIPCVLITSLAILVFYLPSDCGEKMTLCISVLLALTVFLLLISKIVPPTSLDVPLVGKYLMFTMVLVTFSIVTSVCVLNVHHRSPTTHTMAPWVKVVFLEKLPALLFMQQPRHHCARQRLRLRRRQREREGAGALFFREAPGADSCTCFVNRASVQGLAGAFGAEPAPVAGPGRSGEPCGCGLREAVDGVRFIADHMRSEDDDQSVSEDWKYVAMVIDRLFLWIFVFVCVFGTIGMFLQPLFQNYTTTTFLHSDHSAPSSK
# T1 sequence (P43681 29-627 limits assumed): as the sequence (P43681 29-627 limits assumed) above
# T1 sequence (P30926 22-498): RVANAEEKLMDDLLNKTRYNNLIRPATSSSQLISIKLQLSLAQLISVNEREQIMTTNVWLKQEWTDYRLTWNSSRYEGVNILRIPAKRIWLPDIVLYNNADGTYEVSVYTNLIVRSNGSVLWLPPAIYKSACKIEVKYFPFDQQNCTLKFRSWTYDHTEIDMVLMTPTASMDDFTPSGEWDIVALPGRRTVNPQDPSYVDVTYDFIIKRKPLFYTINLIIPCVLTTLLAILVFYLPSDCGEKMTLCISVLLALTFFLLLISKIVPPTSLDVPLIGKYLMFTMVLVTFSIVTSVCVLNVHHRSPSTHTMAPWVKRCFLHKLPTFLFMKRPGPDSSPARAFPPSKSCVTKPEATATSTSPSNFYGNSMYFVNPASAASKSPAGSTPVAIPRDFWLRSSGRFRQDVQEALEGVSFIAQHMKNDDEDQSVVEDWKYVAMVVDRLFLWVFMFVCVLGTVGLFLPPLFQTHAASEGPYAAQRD
# T2 sequence (P09483 31-630): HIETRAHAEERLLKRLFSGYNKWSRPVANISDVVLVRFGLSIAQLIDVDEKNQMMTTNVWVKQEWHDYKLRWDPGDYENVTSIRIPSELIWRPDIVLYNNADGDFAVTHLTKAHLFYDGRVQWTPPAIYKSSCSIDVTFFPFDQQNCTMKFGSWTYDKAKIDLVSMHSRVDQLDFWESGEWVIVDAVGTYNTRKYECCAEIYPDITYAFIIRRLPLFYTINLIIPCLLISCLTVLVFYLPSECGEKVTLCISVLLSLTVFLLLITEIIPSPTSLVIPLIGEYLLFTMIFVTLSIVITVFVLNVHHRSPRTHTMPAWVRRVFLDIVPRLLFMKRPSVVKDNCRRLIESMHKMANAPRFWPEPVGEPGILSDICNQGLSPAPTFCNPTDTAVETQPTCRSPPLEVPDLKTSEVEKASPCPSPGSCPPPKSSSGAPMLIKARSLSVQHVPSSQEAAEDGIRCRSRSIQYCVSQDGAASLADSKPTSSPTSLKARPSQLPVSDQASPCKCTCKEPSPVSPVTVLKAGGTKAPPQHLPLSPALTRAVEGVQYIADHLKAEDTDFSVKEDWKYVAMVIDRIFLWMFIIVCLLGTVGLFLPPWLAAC
# T2 sequence (P12390 25-500): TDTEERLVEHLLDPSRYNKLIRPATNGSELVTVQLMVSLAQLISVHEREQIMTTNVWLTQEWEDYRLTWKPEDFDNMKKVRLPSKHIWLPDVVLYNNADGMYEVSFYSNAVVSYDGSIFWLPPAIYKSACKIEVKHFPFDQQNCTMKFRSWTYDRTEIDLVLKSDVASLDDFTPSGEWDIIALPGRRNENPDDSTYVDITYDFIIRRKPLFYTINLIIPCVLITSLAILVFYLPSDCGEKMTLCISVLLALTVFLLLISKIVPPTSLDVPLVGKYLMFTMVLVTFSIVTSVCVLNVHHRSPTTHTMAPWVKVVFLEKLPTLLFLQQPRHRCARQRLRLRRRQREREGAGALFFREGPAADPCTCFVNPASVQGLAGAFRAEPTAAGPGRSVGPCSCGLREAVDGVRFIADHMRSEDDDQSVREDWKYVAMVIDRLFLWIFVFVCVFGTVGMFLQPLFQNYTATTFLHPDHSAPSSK
structure (smiles),measurement,setting,value
O=C(N[C@@H]1C2CCN(CC2)[C@H]1Cc1cccnc1)c1cc(F)cc(F)c1 [Compound A],Ki,[1],19 µM
same,lowest dose with statistically significant effect,"normal rats; NOR vs. dose, FIG. 1",0.1 mg/kg
same,lowest dose with statistically significant effect,"normal rats; NOR, FIGS. 1-4",0.03 µM/kg
same,"effects observed out to, after dosing","normal rats; NOR, FIGS. 1-4, dose not given in the sentence",≤ 18 h
same,lowest dose with statistically significant effect,"normal rats; NOR, determination of minimum effective dose, FIG. 2",0.03 mg/kg
same,Minimum Effective Dose (MED),"normal rats; NOR, listed as (2S,3R)-N-2-((3-pyridinyl)methyl)-1-azabicyclo[2.2.2]oct-3-yl)-3,5-difluorobenza",MED = 0.084 μmol/kg
same,Minimum Effective Dose (MED),"normal rats; NOR, listed as (2S,3R)—N-2-((3-pyridinyl)methyl)-1-azabicyclo[2.2.2]oct-3-yl)-3,5-difluorobenza",0.084 µmol/kg
same,"effect in ""recall only"" session",normal rats; single oral administration of 0.28 μmol/kg on day 3,demonstrated pro-cognitive effects
same,methacholine-induced increase in Penh values,[2]; 10 mg/kg IT qd,significant inhibition
same,monocytes in BALF,[2]; 10 mg/kg SC,reduced
same,methacholine-induced increase in Penh values,"[2]; 0.1, 1, and 10 mg/kg bid s.c.",significant inhibition
same,airway hyper-responsiveness,"[2]; 0.1, 1 and 10 mg/kg bid s.c. and 10 mg/kg i.t., multiple administrations",significant protection against airway hyper-responsiveness
same,total WBC and eosinophils in BALF,[2]; 0.1 and 1 mg/kg SC,significantly reduced
same,lymphocytes in BALF,[2]; 0.1 and 1 mg/kg SC as well as 10 mg/kg IT,reduced
same,eosinophils and white blood cells in BALF,"[2]; multiple administrations, lacks a consistent dose-response relationship",significant reduction
same,Ki,[3],4.12 µM
same,Ki,[4],1.47 µM
